The target of experiment [1] is T1, Recombinant Rho kinase (fused protein composed of bovine Rho kinase catalytic region and glutathione S-transferase) (Bos taurus, UniProt Q28021).
T1 construct: fused protein composed of bovine Rho kinase catalytic region and glutathione S-transferase; glutathione S-transferase (GST); made in house; host or cells: insect cells infected with baculovirus
Kind of experiment: Rho kinase inhibitory activity (phosphorylation of S6 231-239 substrate with γ32P-ATP). To be noted: concentration inhibiting substrate phosphorylation by 50%. In kind it is biochemical. On the procedure:
This permits the substrate to be labeled with the radioisotope.
Thereafter, the substrate was adsorbed to a filter paper. ATP was washed away with a phosphoric acid solution, and the amount of the phosphorylated substrate was then measured with a liquid scintillation counter.

Experiment [2] relates to Mouse-derived CCR2 overexpressing human-derived histiocyte lymphoma (U937/CCR2). Kind of experiment: Leukocyte migration inhibitory activity (MCP-1 induced migration, CHEMOTAXICELL). In kind it is cell-based. The settings on record: U-937, test compound concentration 10 μg/ml, MCP-1 ligand, migration 1 hr. On the procedure: Mouse-derived CCR2 overexpressing human-derived histiocyte lymphoma (U937/CCR2), was suspended in a 0.1% BSA-containing RPMI 1640 medium, to which a test compound had been added (5×10^6/ml), and the suspension was incubated for 20 min. A chemical solution (500 μl) (0.1% BSA-containing RPMI 1640 medium DMSO 1%), to which an MCP-1 ligand (1 μM) and the test compound had been added, was added to a 24-well plate. CHEMOTAXICELL was put thereon, and 200 μl of the cell suspension was added to the top layer, followed by migration under a 5% CO2 atmosphere at 37° C. for one hr. The number of cells, which had migrated to the lower chamber, was counted with a particle count analyzer (CDA-500, SYSMEX CORPORATION), and the percentage migration inhibition was calculated by the following equation: Migration inhibition (%)=(1−number of migrated cells in the presence of test compound/number of migrated cells in the absence of test compound)×100

Among the data in patent publication US7615564B2, “Isoquinoline derivatives having kinasae inhibitory activity and drugs containing the same” (Kirin Beer Kabushiki Kaisha, priority 2002, dated 2009) are IC50 and inhibition values, retold here.

T1 sequence (Q28021 92-354 limits assumed): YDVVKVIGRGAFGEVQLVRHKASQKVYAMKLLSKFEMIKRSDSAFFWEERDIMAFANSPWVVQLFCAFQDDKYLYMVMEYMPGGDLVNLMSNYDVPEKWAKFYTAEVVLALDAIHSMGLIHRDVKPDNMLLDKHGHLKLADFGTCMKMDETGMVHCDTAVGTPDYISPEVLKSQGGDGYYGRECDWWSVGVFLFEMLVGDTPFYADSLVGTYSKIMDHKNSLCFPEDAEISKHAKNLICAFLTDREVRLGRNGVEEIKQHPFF

Broadly, the IC50 is the concentration that gives 50% inhibition. By inhibition is commonly meant the drop in the measured response relative to a control, in per cent. Regarding `Cc1ccc(CN2CCC(Nc3cccc4cnccc34)C2)cc1` (stereo not drawn) [Example 7, N-(5-Isoquinolyl)-N-[1-(4-methylbenzyl)tetrahydro-1H-3-pyrrolyl]amine], the IC50 in experiment [1] worked out at 96 nM. The inhibition at 10 µg/mL in experiment [2] amounted to 103%.
On to `O=[N+]([O-])c1ccc(CN2CCCC(Nc3cccc4cnccc34)C2)cc1` (stereo not drawn) [Example 30, N-(5-Isoquinolinyl)-N-[1-(4-nitrobenzyl)-3-piperidyl]amine], for which the IC50 in experiment [1] worked out at 1800 nM.
As to `Nc1cccc(CN2CCCC(Nc3cccc4cnccc34)C2)c1` (stereo not drawn) [Example 36, N5-[1-(3-Aminobenzyl)-3-piperidyl]-5-isoquinolylamine], in experiment [1], the IC50 is 310 nM.
As for `c1cc(NC2CCN(Cc3ccncc3)C2)c2ccncc2c1` (stereo not drawn) [Example 15, N-(5-Isoquinolyl)-N-[1-(4-pyridylmethyl)tetrahydro-1H-3-pyrrolyl]amine], the IC50 in experiment [1] was found to be 1100 nM.
As to `c1cncc(CN2CCCC(Nc3cccc4cnccc34)C2)c1` (stereo not drawn) [Example 33, N-(5-Isoquinolinyl)-N-[1-(3-pyridylmethyl)-3-piperidyl]amine], in experiment [1], the IC50 is 1000 nM.
Still for that read-out and setting: as for `O=[N+]([O-])c1ccccc1CN1CCC(Nc2cccc3cnccc23)C1` (stereo not drawn) [Example 9, N-(5-Isoquinolyl)-N-[1-(2-nitrobenzyl)tetrahydro-1H-3-pyrrolyl]amine], the figure is 570 nM; as for `c1csc(CN2CCCC(Nc3cccc4cnccc34)C2)c1` (stereo not drawn) [Example 41, N-(5-Isoquinolinyl)-N-[1-(2-thienylmethyl)-3-piperidyl]amine], 190 nM; as for `Clc1cccc(Cl)c1CN1CCCC(Nc2cccc3cnccc23)C1` (stereo not drawn) [Example 25, N5-[1-(2,6-Dichlorobenzyl)-3-piperidyl]-5-isoquinolylamine], 1200 nM.
For `Clc1cccc(Cl)c1CN1CCC(Nc2cccc3cnccc23)C1` (stereo not drawn) [Example 6, N5-[1-(2,6-Dichlorobenzyl)tetrahydro-1H-3-pyrrolyl]-5-isoquinolylamine], the IC50 in experiment [1] came to 140 nM.
With `Fc1ccc(CN2CCC(Nc3cccc4cnccc34)C2)cc1` (stereo not drawn) [Example 4, N5-[1-(4-Fluorobenzyl)tetrahydro-1H-3-pyrrolyl]-5-isoquinolylamine], the IC50 in experiment [1] stood at 93 nM. For the same compound, the inhibition at 10 µg/mL in experiment [2] was determined as 98%.
As to `O=[N+]([O-])c1ccc(CN2CCC(Nc3cccc4cnccc34)C2)cc1` (stereo not drawn) [Example 11, N-(5-Isoquinolyl)-N-[1-(4-nitrobenzyl)tetrahydro-1H-3-pyrrolyl]amine], the IC50 in experiment [1] was 660 nM.
Consider `Cc1ccc(CN2CCCC(Nc3cccc4cnccc34)C2)cc1` (stereo not drawn) [Example 26, N-(5-Isoquinolinyl)-N-[1-(4-methylbenzyl)-3-piperidyl]amine], for which the IC50 in experiment [1] was 180 nM.
Turning to `Nc1ccccc1CN1CCCC(Nc2cccc3cnccc23)C1` (stereo not drawn) [Example 35, N5-[1-(2-Aminobenzyl)-3-piperidyl]-5-isoquinolylamine], the IC50 in experiment [1] is 270 nM.
As to `O=[N+]([O-])c1cccc(CN2CCCC(Nc3cccc4cnccc34)C2)c1` (stereo not drawn) [Example 29, N-(5-Isoquinolinyl)-N-[1-(3-nitrobenzyl)-3-piperidyl]amine], the IC50 in experiment [1] was 1900 nM.
Take `Nc1ccccc1CN1CCC(Nc2cccc3cnccc23)C1` (stereo not drawn) [Example 16, N5-[1-(2-Aminobenzyl)tetrahydro-1H-3-pyrrolyl]-5-isoquinolylamine]: the concentration for half-maximal inhibition (IC50) in experiment [1] was determined as 210 nM. Also, in experiment [2], the inhibition at 10 µg/mL was 99%.
As for `c1cc(NC2CCCN(Cc3ccncc3)C2)c2ccncc2c1` (stereo not drawn) [Example 34, N-(5-Isoquinolinyl)-N-[1-(4-pyridylmethyl)-3-piperidyl]amine], the IC50 in experiment [1] turned out to be 1500 nM.
With `Clc1ccc(CN2CCCC(Nc3cccc4cnccc34)C2)cc1` (stereo not drawn) [Example 22, N5-[1-(4-Chlorobenzyl)-3-piperidyl]-5-isoquinolylamine], the inhibition at 10 µg/mL in experiment [2] turned out to be 80%.
On to `c1ccc(CN2CCCC(Nc3cccc4cnccc34)C2)nc1` (stereo not drawn) [Example 32, N-(5-Isoquinolinyl)-N-[1-(2-pyridylmethyl)-3-piperidyl]amine], for which, in experiment [1], the half-inhibitory concentration (IC50) worked out at 1300 nM.
As to `Clc1ccccc1CN1CCC(Nc2cccc3cnccc23)C1` (stereo not drawn) [Example 1, N5-[1-(2-Chlorobenzyl)tetrahydro-1H-3-pyrrolyl]-5-isoquinolylamine], in experiment [1], the IC50 came to 99 nM. Moreover, the inhibition at 10 µg/mL in experiment [2] was 86%.
Take `Clc1cccc(CN2CCCC(Nc3cccc4cnccc34)C2)c1` (stereo not drawn) [Example 21, N5-[1-(3-Chlorobenzyl)-3-piperidyl]-5-isoquinolylamine]: the IC50 in experiment [1] turned out to be 270 nM. Moreover, the inhibition at 10 µg/mL in experiment [2] is 97%.
The matching figures for `Clc1ccc(CN2CCC(Nc3cccc4cnccc34)C2)cc1` (stereo not drawn) [Example 3, N5-[1-(4-Chlorobenzyl)tetrahydro-1H-3-pyrrolyl]-5-isoquinolylamine]: 66 nM and 101%.
Regarding `Nc1cc(Cl)ccc1CN1CCCC(Nc2cccc3cnccc23)C1` (stereo not drawn) [Example 38, N5-[1-(2-Amino-4-chlorobenzyl)-3-piperidyl]-5-isoquinolylamine], the 50% inhibitory concentration (IC50) in experiment [1] amounted to 400 nM.
Turning to `c1cc(NC2CCCN(Cc3cc[nH]c3)C2)c2ccncc2c1` (stereo not drawn) [Example 40, N-(5-Isoquinolinyl)-N-[1-(1H-3-pyrrolylmethyl)-3-piperidyl]amine], the IC50 in experiment [1] came out at 670 nM.
Take `O=[N+]([O-])c1cc(Cl)ccc1CN1CCC(Nc2cccc3cnccc23)C1` (stereo not drawn) [Example 12, N5-[1-(4-Chloro-2-nitrobenzyl)tetrahydro-1H-3-pyrrolyl]-5-isoquinolylamine]: the IC50 in experiment [1] is 1300 nM.
Regarding `Clc1ccccc1CN1CCCC(Nc2cccc3cnccc23)C1` (stereo not drawn) [Example 20, N5-[1-(2-Chlorobenzyl)-3-piperidyl]-5-isoquinolylamine], the IC50 in experiment [1] was found to be 210 nM. Besides, the inhibition at 10 µg/mL in experiment [2] was 69%.
As to `Nc1ccc(CN2CCC(Nc3cccc4cnccc34)C2)cc1` (stereo not drawn) [Example 18, N5-[1-(4-Aminobenzyl)tetrahydro-1H-3-pyrrolyl]-5-isoquinolylamine], the IC50 in experiment [1] is 230 nM. Further, in experiment [2], the inhibition at 10 µg/mL came to 94%.
As to `Nc1ccc(CN2CCCC(Nc3cccc4cnccc34)C2)cc1` (stereo not drawn) [Example 37, N5-[1-(4-Aminobenzyl)-3-piperidyl]-5-isoquinolylamine], the IC50 in experiment [1] was determined as 290 nM.
Same read-out and setting: as for `c1cncc(CN2CCC(Nc3cccc4cnccc34)C2)c1` (stereo not drawn) [Example 14, N-(5-Isoquinolyl)-N-[1-(3-pyridylmethyl)tetrahydro-1H-3-pyrrolyl]amine], the figure is 590 nM; as for `O=[N+]([O-])c1cc(Cl)ccc1CN1CCCC(Nc2cccc3cnccc23)C1` (stereo not drawn) [Example 31, N5-[1-(4-Chloro-2-nitrobenzyl)-3-piperidyl]-5-isoquinolylamine], 2300 nM; as for `c1cc(NC2CCCN(Cc3ccoc3)C2)c2ccncc2c1` (stereo not drawn) [Example 44, N-[1-(3-Furylmethyl)-3-piperidyl]-N-(5-isoquinolyl)amine], 110 nM.
Regarding `c1cc(NC2CCCN(Cc3ccsc3)C2)c2ccncc2c1` (stereo not drawn) [Example 42, N-(5-Isoquinolinyl)-N-[1-(3-thienylmethyl)-3-piperidyl]amine], the IC50 in experiment [1] worked out at 31 nM.
Regarding `CC(C)c1ccc(CN2CCC(Nc3cccc4cnccc34)C2)cc1` (stereo not drawn) [Example 8, N5-[1-(4-Isopropylbenzyl)tetrahydro-1H-3-pyrrolyl]-5-isoquinolylamine], the IC50 in experiment [1] was 200 nM.
With `Fc1cccc(F)c1CN1CCCC(Nc2cccc3cnccc23)C1` (stereo not drawn) [Example 24, N5-[1-(2,6-Difluorobenzyl)-3-piperidyl]-5-isoquinolylamine], the IC50 in experiment [1] came to 230 nM.
As to `c1coc(CN2CCCC(Nc3cccc4cnccc34)C2)c1` (stereo not drawn) [Example 43, N-[1-(2-Furylmethyl)-3-piperidyl]-N-(5-isoquinolyl)amine], in experiment [1], the half-inhibitory concentration (IC50) is 200 nM.
Consider `c1ccc(CN2CCCC(Nc3cccc4cnccc34)C2)cc1` (stereo not drawn) [Example 23, N-(1-Benzyl-3-piperidyl)-5-isoquinolylamine], for which the IC50 in experiment [1] is 240 nM.
Regarding `Clc1cccc(CN2CCC(Nc3cccc4cnccc34)C2)c1` (stereo not drawn) [Example 2, N5-[1-(3-Chlorobenzyl)tetrahydro-1H-3-pyrrolyl]-5-isoquinolylamine], the IC50 in experiment [1] was 63 nM. Also, the inhibition at 10 µg/mL in experiment [2] was 90%.
As to `O=[N+]([O-])c1ccccc1CN1CCCC(Nc2cccc3cnccc23)C1` (stereo not drawn) [Example 28, N-(5-Isoquinolinyl)-N-[1-(2-nitrobenzyl)-3-piperidyl]amine], the IC50 in experiment [1] was 580 nM.
Still for that read-out and setting: as for `c1c[nH]c(CN2CCCC(Nc3cccc4cnccc34)C2)c1` (stereo not drawn) [Example 39, N-(5-Isoquinolinyl)-N-[1-(1H-2-pyrrolylmethyl)-3-piperidyl]amine], the figure is 23 nM.
Regarding `Fc1cccc(F)c1CN1CCC(Nc2cccc3cnccc23)C1` (stereo not drawn) [Example 5, N5-[1-(2,6-Difluorobenzyl)tetrahydro-1H-3-pyrrolyl]-5-isoquinolylamine], the IC50 in experiment [1] is 73 nM. Further, the inhibition at 10 µg/mL in experiment [2] was 93%.
As for `O=[N+]([O-])c1cccc(CN2CCC(Nc3cccc4cnccc34)C2)c1` (stereo not drawn) [Example 10, N-(5-Isoquinolyl)-N-[1-(3-nitrobenzyl)tetrahydro-1H-3-pyrrolyl]amine], in experiment [1], the IC50 was 200 nM.
With `c1ccc(CN2CCC(Nc3cccc4cnccc34)C2)nc1` (stereo not drawn) [Example 13, N-(5-Isoquinolyl)-N-[1-(2-pyridylmethyl)tetrahydro-1H-3-pyrrolyl]amine], in experiment [1], the IC50 came to 480 nM.
